Experimental data reported in ChEMBL document CHEMBL3856276, “Design, Synthesis, and Biological Evaluation of Novel Tetrahydroprotoberberine Derivatives (THPBs) as Selective α1A-Adrenoceptor Antagonists” (J Med Chem, 2016).

Key:
[1] = biological target: T1, Alpha-1A adrenergic receptor (Rattus norvegicus, UniProt P43140); assay: Displacement of [125I]-BE2254 from Wistar rat alpha1A adrenoceptor after 20 mins
T1 sequence (P43140 whole entry): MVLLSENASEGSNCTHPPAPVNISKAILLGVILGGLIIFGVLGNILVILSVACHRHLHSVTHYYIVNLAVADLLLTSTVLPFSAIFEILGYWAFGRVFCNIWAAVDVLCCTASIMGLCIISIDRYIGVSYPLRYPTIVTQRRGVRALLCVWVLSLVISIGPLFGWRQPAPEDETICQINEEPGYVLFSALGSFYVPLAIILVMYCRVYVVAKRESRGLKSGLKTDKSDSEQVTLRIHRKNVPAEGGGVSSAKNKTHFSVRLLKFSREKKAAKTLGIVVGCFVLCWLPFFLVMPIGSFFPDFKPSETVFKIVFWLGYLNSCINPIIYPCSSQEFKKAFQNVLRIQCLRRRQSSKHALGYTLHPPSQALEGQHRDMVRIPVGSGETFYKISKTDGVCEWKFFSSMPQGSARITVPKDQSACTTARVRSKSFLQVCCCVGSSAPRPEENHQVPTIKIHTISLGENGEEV

[2] = biological target: T2, Alpha-1A adrenergic receptor (Homo sapiens) (UniProt P35348); assay: Antagonist activity at human full-length N-terminal SNAP-tagged alpha1A adrenoceptor expressed in HEK293 cells assessed as inhibition of agonist-induced calcium mobilization at 10 uM preincubated for 10 mins followed by agonist addition by fluo-4 AM dye-based assay relative to control; type: functional, cell-based
T2 sequence (whole entry): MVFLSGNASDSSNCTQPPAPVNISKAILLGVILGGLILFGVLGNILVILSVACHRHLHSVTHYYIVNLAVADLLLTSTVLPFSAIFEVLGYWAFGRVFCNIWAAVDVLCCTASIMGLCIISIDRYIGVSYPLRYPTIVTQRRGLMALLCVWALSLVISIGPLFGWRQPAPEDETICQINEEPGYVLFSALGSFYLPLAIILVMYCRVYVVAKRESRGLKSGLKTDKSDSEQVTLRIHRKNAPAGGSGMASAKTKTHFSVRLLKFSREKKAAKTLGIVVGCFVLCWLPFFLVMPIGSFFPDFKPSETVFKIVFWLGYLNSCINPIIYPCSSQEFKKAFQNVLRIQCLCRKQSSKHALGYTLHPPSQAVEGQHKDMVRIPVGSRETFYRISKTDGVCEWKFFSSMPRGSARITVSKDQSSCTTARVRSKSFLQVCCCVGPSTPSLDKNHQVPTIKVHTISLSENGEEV

Homo sapiens [3] = organism: Homo sapiens; assay: Selectivity ratio of IC50 for human full-length N-terminal SNAP-tagged alpha1B adrenoceptor to IC50 for human full-length N-terminal SNAP-tagged alpha1A adrenoceptor
Homo sapiens [4] = organism: Homo sapiens; assay: Selectivity ratio of IC50 for human full-length N-terminal SNAP-tagged alpha1D adrenoceptor to IC50 for human full-length N-terminal SNAP-tagged alpha1A adrenoceptor
[5] = biological target: T3, Alpha-1A adrenergic receptor (Homo sapiens, UniProt P35348)
T3 sequence (P35348 whole entry): T2 sequence (whole entry)
Description: Antagonist activity at human full-length N-terminal SNAP-tagged alpha1A adrenoceptor expressed in HEK293 cells assessed as inhibition of agonist-induced calcium mobilization preincubated for 10 mins followed by agonist addition by fluo-4 AM dye-based assay

[6] = biological target: T4, Alpha-1B adrenergic receptor (Homo sapiens, UniProt P35368)
T4 sequence (P35368 whole entry): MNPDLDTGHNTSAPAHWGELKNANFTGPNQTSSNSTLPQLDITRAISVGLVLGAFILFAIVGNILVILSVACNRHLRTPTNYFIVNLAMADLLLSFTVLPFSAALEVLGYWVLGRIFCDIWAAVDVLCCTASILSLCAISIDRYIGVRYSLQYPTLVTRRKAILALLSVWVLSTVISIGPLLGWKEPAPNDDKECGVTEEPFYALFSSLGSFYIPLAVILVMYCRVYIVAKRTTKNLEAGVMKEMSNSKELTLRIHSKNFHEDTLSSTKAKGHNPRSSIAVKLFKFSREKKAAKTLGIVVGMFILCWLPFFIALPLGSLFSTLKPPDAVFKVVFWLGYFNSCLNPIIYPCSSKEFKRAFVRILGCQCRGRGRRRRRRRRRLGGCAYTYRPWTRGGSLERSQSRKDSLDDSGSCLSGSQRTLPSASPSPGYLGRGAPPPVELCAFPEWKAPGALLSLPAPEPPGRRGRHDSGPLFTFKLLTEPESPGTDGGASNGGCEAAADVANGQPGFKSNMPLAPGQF
Description: Antagonist activity at human full-length N-terminal SNAP-tagged alpha1B adrenoceptor expressed in HEK293 cells assessed as inhibition of agonist-induced calcium mobilization preincubated for 10 mins followed by agonist addition by fluo-4 AM dye-based assay

[7] = biological target: T5, Alpha-1D adrenergic receptor (Homo sapiens, UniProt P25100)
T5 sequence (P25100 whole entry): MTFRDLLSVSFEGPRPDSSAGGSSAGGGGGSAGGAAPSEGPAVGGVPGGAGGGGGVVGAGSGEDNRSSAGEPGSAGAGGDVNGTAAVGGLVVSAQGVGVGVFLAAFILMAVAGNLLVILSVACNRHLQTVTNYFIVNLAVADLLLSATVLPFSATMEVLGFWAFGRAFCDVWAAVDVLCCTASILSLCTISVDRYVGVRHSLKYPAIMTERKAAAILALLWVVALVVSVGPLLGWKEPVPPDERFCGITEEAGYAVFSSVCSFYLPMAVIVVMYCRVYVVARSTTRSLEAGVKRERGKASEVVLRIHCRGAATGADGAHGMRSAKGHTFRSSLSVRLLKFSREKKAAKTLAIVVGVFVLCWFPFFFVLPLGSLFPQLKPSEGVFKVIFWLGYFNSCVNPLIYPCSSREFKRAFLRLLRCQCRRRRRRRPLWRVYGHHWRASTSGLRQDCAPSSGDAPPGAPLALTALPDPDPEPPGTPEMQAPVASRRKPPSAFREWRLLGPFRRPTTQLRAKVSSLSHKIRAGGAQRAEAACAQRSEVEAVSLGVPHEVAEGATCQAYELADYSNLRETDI
Description: Antagonist activity at human full-length N-terminal SNAP-tagged alpha1D adrenoceptor expressed in HEK293 cells assessed as inhibition of agonist-induced calcium mobilization preincubated for 10 mins followed by agonist addition by fluo-4 AM dye-based assay

[8] = biological target: T1, Alpha-1A adrenergic receptor; assay: Antagonist activity at alpha1A adrenoceptor in Sprague-Dawley rat urethra assessed as inhibition of norepinephrine-induced smooth muscle contraction after 20 mins
[9] = biological target: T6, Alpha-1B adrenergic receptor (Rattus norvegicus, UniProt P15823); assay: Antagonist activity at alpha1B adrenoceptor in Sprague-Dawley rat aorta assessed as inhibition of norepinephrine-induced smooth muscle contraction after 20 mins
T6 sequence (P15823 whole entry): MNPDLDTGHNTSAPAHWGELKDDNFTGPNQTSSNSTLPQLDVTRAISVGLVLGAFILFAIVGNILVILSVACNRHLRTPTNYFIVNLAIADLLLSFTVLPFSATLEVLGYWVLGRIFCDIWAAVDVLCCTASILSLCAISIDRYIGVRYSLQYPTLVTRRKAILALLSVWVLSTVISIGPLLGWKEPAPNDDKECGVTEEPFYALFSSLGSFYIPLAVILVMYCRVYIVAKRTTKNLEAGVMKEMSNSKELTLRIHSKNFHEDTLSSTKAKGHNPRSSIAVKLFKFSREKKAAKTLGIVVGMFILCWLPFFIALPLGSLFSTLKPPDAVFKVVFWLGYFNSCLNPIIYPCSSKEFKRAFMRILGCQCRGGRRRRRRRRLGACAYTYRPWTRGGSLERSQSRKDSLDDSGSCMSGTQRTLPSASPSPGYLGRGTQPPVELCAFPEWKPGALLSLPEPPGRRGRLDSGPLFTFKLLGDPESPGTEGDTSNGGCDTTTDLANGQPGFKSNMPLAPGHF

Rattus norvegicus [10] = assay: Inhibition of micturition frequency in po dosed Sprague-Dawley rat benign prostatic hyperplasia model administered 20 mins followed by distilled watering loading measured for 2 hrs; type: functional
Rattus norvegicus [11] = assay: Increase in voided volume in po dosed Sprague-Dawley rat benign prostatic hyperplasia model administered 20 mins followed by distilled watering loading measured for 2 hrs; type: functional
[12] = biological target: Voltage-gated inwardly rectifying potassium channel KCNH2 (Homo sapiens, UniProt Q12809); assay: Inhibition of human ERG
Voltage-gated inwardly rectifying potassium channel KCNH2, sequence (Q12809 whole entry): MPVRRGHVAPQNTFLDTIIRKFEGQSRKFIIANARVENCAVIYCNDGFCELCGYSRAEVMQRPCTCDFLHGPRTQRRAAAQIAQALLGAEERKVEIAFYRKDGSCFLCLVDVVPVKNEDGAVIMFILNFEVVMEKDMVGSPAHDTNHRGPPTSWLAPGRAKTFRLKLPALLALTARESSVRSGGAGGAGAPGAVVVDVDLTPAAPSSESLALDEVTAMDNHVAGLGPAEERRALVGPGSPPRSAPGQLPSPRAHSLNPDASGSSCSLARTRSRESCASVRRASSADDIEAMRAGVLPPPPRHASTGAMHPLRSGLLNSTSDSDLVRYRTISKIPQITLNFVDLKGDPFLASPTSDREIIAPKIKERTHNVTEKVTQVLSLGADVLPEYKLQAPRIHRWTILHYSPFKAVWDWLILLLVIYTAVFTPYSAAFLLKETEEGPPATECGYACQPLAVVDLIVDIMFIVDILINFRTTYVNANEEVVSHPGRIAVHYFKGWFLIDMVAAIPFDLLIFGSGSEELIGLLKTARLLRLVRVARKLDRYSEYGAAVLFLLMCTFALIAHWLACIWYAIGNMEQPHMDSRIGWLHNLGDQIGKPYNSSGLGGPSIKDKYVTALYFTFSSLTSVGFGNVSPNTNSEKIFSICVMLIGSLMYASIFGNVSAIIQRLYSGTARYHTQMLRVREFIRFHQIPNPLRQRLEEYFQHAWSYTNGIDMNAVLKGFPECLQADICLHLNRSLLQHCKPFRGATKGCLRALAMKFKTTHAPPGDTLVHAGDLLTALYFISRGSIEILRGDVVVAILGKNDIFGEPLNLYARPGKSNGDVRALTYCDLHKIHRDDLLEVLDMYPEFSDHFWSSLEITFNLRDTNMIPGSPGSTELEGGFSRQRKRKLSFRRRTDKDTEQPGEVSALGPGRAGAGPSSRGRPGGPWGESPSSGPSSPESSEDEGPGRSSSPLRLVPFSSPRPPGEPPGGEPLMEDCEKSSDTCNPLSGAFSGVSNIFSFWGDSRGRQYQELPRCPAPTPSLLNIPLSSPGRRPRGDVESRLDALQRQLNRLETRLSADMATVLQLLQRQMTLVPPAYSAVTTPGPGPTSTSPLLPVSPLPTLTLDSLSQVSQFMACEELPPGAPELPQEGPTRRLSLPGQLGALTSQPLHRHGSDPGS

[13] = Toxicity in patient assessed as orthostatic hypotension; conditions: human, in vivo
[14] = Selectivity ratio of IC50 for alpha1B adrenoceptor in Sprague-Dawley rat aorta to IC50 for alpha1A adrenoceptor in Sprague-Dawley rat urethra

| Structure (SMILES) | inhibition [2] | Ratio IC50 (Homo sapiens [4]) | IC50 [5] | IC50 [6] | IC50 [7] | Ratio IC50 (Homo sapiens [3]) | further results |
| --- | --- | --- | --- | --- | --- | --- | --- |
| COc1cc2c(cc1O)[C@@H]1Cc3c(Cl)cc(OC)c(O)c3CN1CC2 |  |  |  |  |  |  | Ki [1]: 1380 nM |
| COc1ccc2c3c([nH]c2c1)CN1CCc2cc4c(cc2C1C3)OCO4 (stereo unspecified) | 100% | > 16.8 | 594 nM | > 10000 nM | > 10000 nM | > 16.8 |  |
| C[C@H](Cc1cc2c(c(C(N)=O)c1)N(CCCO)CC2)NCCOc1ccccc1OCC(F)(F)F [SILODOSIN] | 100% |  |  |  |  |  | IC50 [8]: 0.8 nM; IC50 [9]: 90.1 nM; inhibition (Rattus norvegicus [10]): Dose-dependent effect; Activity (Rattus norvegicus [11]): Dose-dependent effect; IC50 [12]: 8200 nM; Activity [13]: 2.6% |
| COc1cc2c(cc1O)[C@@H]1Cc3ccc(O)c(OC)c3CN1CC2 [STEPHOLIDINE] |  |  |  |  |  |  | Ki [1]: 2240 nM |
| COc1ccc2c(c1OC)CN1CCc3cc4c(cc3C1C2)OCO4 (stereo unspecified) [TETRAHYDROBERBERINE] |  |  |  |  |  |  | Ki [1]: 1120 nM |
| c1ccc2c3c([nH]c2c1)CN1CCc2cc4c(cc2C1C3)OCO4 (stereo unspecified) | 100% | > 80 | 125 nM | > 10000 nM | > 10000 nM | > 80 |  |

Now from value to compound, other results behind:

| inhibition [2] | Ratio IC50 (Homo sapiens [4]) | IC50 [5] | IC50 [6] | IC50 [7] | Structure (SMILES) | Ratio IC50 (Homo sapiens [3]) | further results |
| --- | --- | --- | --- | --- | --- | --- | --- |
| 99% | > 174 | 57.4 nM | > 10000 nM | > 10000 nM | c1ccc2c3c([nH]c2c1)CN1CCc2cc4c(cc2[C@@H]1C3)OCO4 | > 174 |  |
| 100% | 33.1 | 254 nM | > 10000 nM | 8390 nM | Fc1ccc2[nH]c3c(c2c1)CC1c2cc4c(cc2CCN1C3)OCO4 (stereo unspecified) | > 39.4 |  |
| 100% | > 44.4 | 225 nM | > 10000 nM | > 10000 nM | CCCOc1cc2c(cc1OC)CCN1Cc3[nH]c4ccc(OC)cc4c3CC21 (stereo unspecified) | > 44.4 |  |
| 100% | > 19.4 | 202 nM | > 10000 nM | > 10000 nM | COc1cccc2[nH]c3c(c12)CC1c2cc4c(cc2CCN1C3)OCO4 (stereo unspecified) | > 19.4 |  |
| 99% | 229 | 17.6 nM | > 10000 nM | 4040 nM | COc1ccc2[nH]c3c(c2c1)CC1c2cc4c(cc2CCN1C3)OCO4 (stereo unspecified) | > 568 | IC50 [8]: 45.4 nM; IC50 [9]: > 1000 nM; Ratio IC50 [14]: >22.02; minimal effective dose (Rattus norvegicus [10]; read-out: MED): 10 mg/kg; minimal effective dose (Rattus norvegicus [11]; read-out: MED): 3 mg/kg; IC50 [12]: 16500 nM |
| 100% |  |  | 4.8 nM | 1.4 nM | CCOc1ccccc1OCCN[C@H](C)Cc1ccc(OC)c(S(N)(=O)=O)c1 [TAMSULOSIN] |  |  |
